According to PubChem BioAssay (NCI):
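Cells were grown in 96-well plates and exposed to each compound for 48 hours at five concentrations; endpoints were interpolated linearly between bracketing concentrations, or set to the highest concentration if not reached. Definition used: TGI = concentration required for complete inhibition of growth.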

Experiments:
Assay in all cases: NCI anticancer screen, dose series, 48 h
[1] = test system: 786-0 renal
[2] = test system: A498 renal
[3] = test system: A549 NSCLC
[4] = test system: ACHN renal
[5] = test system: BT-549 breast
[6] = test system: CAKI-1 renal
[7] = test system: CCRF-CEM leukemia
[8] = test system: COLO 205 colon
[9] = test system: DU-145 prostate
[10] = test system: EKVX NSCLC
[11] = test system: HCT-116 colon
[12] = test system: HCT-15 colon
[13] = test system: HL-60(TB) leukemia
[14] = test system: HOP-62 NSCLC
[15] = test system: HOP-92 NSCLC
[16] = test system: HS 578T breast
[17] = test system: HT29 colon
[18] = test system: IGROV1 ovarian
[19] = test system: K-562 leukemia
[20] = test system: KM12 colon
[21] = test system: LOX IMVI melanoma
[22] = test system: M14 melanoma
[23] = test system: MALME-3M melanoma
[24] = test system: MCF7 breast
[25] = test system: MDA-MB-231 breast
[26] = test system: MDA-MB-435
[27] = test system: MDA-N
[28] = test system: MOLT-4 leukemia
[29] = test system: NCI-H226 lung
[30] = test system: NCI-H23 lung
[31] = test system: NCI-H460 lung
[32] = test system: NCI-H522 lung
[33] = test system: NCI/ADR-RES ovarian
[34] = test system: OVCAR-3 ovarian
[35] = test system: OVCAR-4 ovarian
[36] = test system: OVCAR-5 ovarian
[37] = test system: OVCAR-8 ovarian
[38] = test system: PC-3 prostate
[39] = test system: RPMI-8226 leukemia
[40] = test system: RXF 393 renal
[41] = test system: SF-268 CNS
[42] = test system: SF-295 CNS
[43] = test system: SF-539 CNS
[44] = test system: SK-MEL-2 melanoma
[45] = test system: SK-MEL-28 melanoma
[46] = test system: SK-MEL-5 melanoma
[47] = test system: SK-OV-3 ovarian
[48] = test system: SN12C renal
[49] = test system: SNB-19 CNS
[50] = test system: SNB-75 CNS
[51] = test system: SR leukemia
[52] = test system: T-47D breast
[53] = test system: TK-10 renal
[54] = test system: U251 CNS
[55] = test system: UACC-257 melanoma
[56] = test system: UO-31 renal
[57] = test system: SW-620 colon
[58] = test system: UACC-62 melanoma

C(=N\c1nc2cc3sc(/N=C/c4cccs4)nc3cc2s1)/c1cccs1
TGI [1]: > 100 µM
TGI [2]: > 100 µM
TGI [3]: > 100 µM
TGI [4]: > 100 µM
TGI [5]: > 100 µM
TGI [6]: > 100 µM
TGI [7]: > 100 µM
TGI [8]: 12.4 µM
TGI [9]: > 100 µM
TGI [10]: > 100 µM
TGI [11]: > 100 µM
TGI [12]: > 100 µM
TGI [13]: > 100 µM
TGI [14]: > 100 µM
TGI [15]: > 100 µM
TGI [16]: > 100 µM
TGI [17]: > 100 µM
TGI [18]: > 100 µM
TGI [19]: > 100 µM
TGI [20]: > 100 µM
TGI [21]: > 100 µM
TGI [22]: > 100 µM
TGI [23]: > 100 µM
TGI [24]: > 100 µM
TGI [25]: > 100 µM
TGI [26]: > 100 µM
TGI [27]: > 100 µM
TGI [28]: > 100 µM
TGI [29]: 88.1 µM
TGI [30]: > 100 µM
TGI [31]: > 100 µM
TGI [32]: > 100 µM
TGI [33]: > 100 µM
TGI [34]: > 100 µM
TGI [35]: > 100 µM
TGI [36]: > 100 µM
TGI [37]: > 100 µM
TGI [38]: > 100 µM
TGI [39]: > 100 µM
TGI [40]: > 100 µM
TGI [41]: > 100 µM
TGI [42]: > 100 µM
TGI [43]: > 100 µM
TGI [44]: > 100 µM
TGI [45]: > 100 µM
TGI [46]: > 100 µM
TGI [47]: > 100 µM
TGI [48]: > 100 µM
TGI [49]: > 100 µM
TGI [50]: > 100 µM
TGI [51]: > 100 µM
TGI [52]: > 100 µM
TGI [53]: > 100 µM
TGI [54]: > 100 µM
TGI [55]: > 100 µM
TGI [56]: > 100 µM

COc1ccc(/C=C/c2nsc(/C=C/c3ccc(OC)cc3)n2)cc1
TGI [1]: 41.8 µM
TGI [2]: > 100 µM
TGI [3]: > 100 µM
TGI [4]: > 100 µM
TGI [5]: > 100 µM
TGI [6]: > 100 µM
TGI [7]: > 100 µM
TGI [8]: > 100 µM
TGI [9]: > 100 µM
TGI [10]: > 100 µM
TGI [11]: > 100 µM
TGI [12]: > 100 µM
TGI [13]: > 100 µM
TGI [14]: > 100 µM
TGI [15]: > 100 µM
TGI [16]: > 100 µM
TGI [17]: > 100 µM
TGI [18]: > 100 µM
TGI [19]: > 100 µM
TGI [20]: > 100 µM
TGI [21]: > 100 µM
TGI [22]: > 100 µM
TGI [23]: > 100 µM
TGI [24]: > 100 µM
TGI [25]: > 100 µM
TGI [26]: > 100 µM
TGI [27]: > 100 µM
TGI [28]: > 100 µM
TGI [29]: > 100 µM
TGI [31]: 88.7 µM
TGI [32]: > 100 µM
TGI [33]: > 100 µM
TGI [34]: > 100 µM
TGI [35]: > 100 µM
TGI [36]: > 100 µM
TGI [37]: > 100 µM
TGI [38]: > 100 µM
TGI [39]: > 100 µM
TGI [40]: > 100 µM
TGI [41]: > 100 µM
TGI [42]: > 100 µM
TGI [43]: > 100 µM
TGI [44]: > 100 µM
TGI [45]: > 100 µM
TGI [46]: > 100 µM
TGI [47]: > 100 µM
TGI [49]: > 100 µM
TGI [50]: > 100 µM
TGI [51]: > 100 µM
TGI [52]: > 100 µM
TGI [53]: > 100 µM
TGI [54]: > 100 µM
TGI [55]: > 100 µM
TGI [56]: > 100 µM

O=C1CSC(c2ccccc2O)N1c1ccc(-c2ccc(-n3c(-c4ccccc4)nc4ccccc4c3=O)cc2)cc1 (stereo not given)
TGI [1]: 60.9 µM
TGI [2]: > 100 µM
TGI [3]: 77.8 µM
TGI [5]: 55.7 µM
TGI [6]: 69.1 µM
TGI [7]: > 100 µM
TGI [8]: 44.9 µM
TGI [9]: > 100 µM
TGI [10]: > 100 µM
TGI [11]: > 100 µM
TGI [12]: > 100 µM
TGI [13]: > 100 µM
TGI [14]: > 100 µM
TGI [15]: > 100 µM
TGI [16]: > 100 µM
TGI [17]: 28.7 µM
TGI [18]: > 100 µM
TGI [19]: > 100 µM
TGI [20]: 52.3 µM
TGI [21]: 77.4 µM
TGI [22]: > 100 µM
TGI [23]: 49.3 µM
TGI [24]: > 100 µM
TGI [25]: > 100 µM
TGI [26]: > 100 µM
TGI [27]: > 100 µM
TGI [28]: > 100 µM
TGI [29]: > 100 µM
TGI [30]: > 100 µM
TGI [31]: > 100 µM
TGI [32]: 44.7 µM
TGI [33]: > 100 µM
TGI [34]: > 100 µM
TGI [35]: > 100 µM
TGI [36]: > 100 µM
TGI [37]: > 100 µM
TGI [38]: 94.9 µM
TGI [39]: > 100 µM
TGI [40]: 91.9 µM
TGI [41]: > 100 µM
TGI [42]: 54.2 µM
TGI [43]: > 100 µM
TGI [45]: > 100 µM
TGI [47]: > 100 µM
TGI [48]: > 100 µM
TGI [49]: > 100 µM
TGI [50]: > 100 µM
TGI [51]: > 100 µM
TGI [57]: > 100 µM
TGI [52]: > 100 µM
TGI [53]: 71 µM
TGI [54]: > 100 µM
TGI [55]: > 100 µM
TGI [58]: > 100 µM
TGI [56]: > 100 µM
